Source: PMC9629705, “Canonical strigolactones are not the major determinant of tillering but important rhizospheric signals in rice” (Science Advances, 2022)

Tests used:
OsMAX1-1400 = target: T1, OsMAX1-1400 (Oryza sativa, UniProt W5QV10); assay: LC-MS/MS enzyme assay (4DO to orobanchol) with microsomes of yeast overexpressing the enzyme; type: biochemical
T1 construct: gene Os01g0701400
T1 sequence (W5QV10 1-541): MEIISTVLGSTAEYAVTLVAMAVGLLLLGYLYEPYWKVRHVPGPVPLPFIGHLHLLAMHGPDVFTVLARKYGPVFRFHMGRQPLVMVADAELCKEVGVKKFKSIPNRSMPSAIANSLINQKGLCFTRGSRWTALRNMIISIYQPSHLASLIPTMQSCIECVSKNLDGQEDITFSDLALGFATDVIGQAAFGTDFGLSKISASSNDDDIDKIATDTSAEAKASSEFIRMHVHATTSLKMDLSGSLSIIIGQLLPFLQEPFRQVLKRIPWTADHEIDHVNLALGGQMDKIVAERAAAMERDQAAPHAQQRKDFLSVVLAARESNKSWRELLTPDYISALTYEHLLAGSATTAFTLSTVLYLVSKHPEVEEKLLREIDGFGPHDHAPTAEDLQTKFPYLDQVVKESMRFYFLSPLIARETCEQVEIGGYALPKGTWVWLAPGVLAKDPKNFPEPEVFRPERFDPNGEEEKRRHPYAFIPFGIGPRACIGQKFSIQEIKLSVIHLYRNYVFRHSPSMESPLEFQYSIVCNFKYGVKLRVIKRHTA

OsMAX1-900 = target: T2, OsMAX1-900 (Oryza sativa, UniProt M9R6D3); assay: LC-MS/MS enzyme assay (CL to CLA, CLA to 4DO) with microsomes of yeast overexpressing the enzyme; type: biochemical
T2 construct: gene Os01g0700900
T2 sequence (M9R6D3 1-539): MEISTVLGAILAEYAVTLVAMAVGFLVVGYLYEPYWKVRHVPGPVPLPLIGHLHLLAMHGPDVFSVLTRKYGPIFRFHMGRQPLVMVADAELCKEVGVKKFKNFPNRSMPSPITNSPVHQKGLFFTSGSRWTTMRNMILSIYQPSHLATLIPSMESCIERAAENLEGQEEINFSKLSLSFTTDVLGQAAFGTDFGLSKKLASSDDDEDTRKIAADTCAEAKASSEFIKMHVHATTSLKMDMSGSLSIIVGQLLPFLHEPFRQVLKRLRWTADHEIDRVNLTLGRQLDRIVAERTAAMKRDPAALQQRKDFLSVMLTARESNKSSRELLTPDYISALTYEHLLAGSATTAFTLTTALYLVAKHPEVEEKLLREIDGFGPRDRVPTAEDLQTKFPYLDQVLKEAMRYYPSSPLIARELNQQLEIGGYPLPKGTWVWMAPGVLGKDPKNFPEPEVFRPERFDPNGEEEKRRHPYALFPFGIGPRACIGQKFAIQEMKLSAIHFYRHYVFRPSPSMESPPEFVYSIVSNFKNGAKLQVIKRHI

With `O=C(c1ccccc1)C(CCCCOc1ccccc1)n1cncn1` (centres unmarked) [TIS108] the IC50 (OsMAX1-1400) was 20 nM and the IC50 (OsMAX1-900) was 150 nM.
